Measurements as given in patent US11667645B2, “Granzyme B directed imaging and therapy” (CytoSite Biopharma Inc., priority 2018, dated 2023).
pIC50: −log10 of the molar value. Where two headings read alike, the source gives them in different places.

Target: Granzyme B (human lymphocytes) (Homo sapiens (Human), UniProt P10144)
Assay: human Granzyme B biochemical assay
In short: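 Enzyme (10 nM working stock, assay buffer with 0.1% BSA) pre-incubated with compound for 30 min at 22 °C, then Ac-IETD-AFC (800 µM working stock) added for 60 min at 22 °C in the dark. Fluorescence read at Ex 400/Em 505 nm; 8-point 3.16-fold series (40 µM top working stock); IC50 from % inhibition versus standard-inhibitor and DMSO controls.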

[1] = Granzyme B (human lymphocytes) 5 nM, substrate Ac-IETD-AFC 200 μM, Cpd incubation with enzyme 30 mins, 22° C., read time 60 mins, read-out: IC50

Sequence of Granzyme B (human lymphocytes) (P10144 21-247): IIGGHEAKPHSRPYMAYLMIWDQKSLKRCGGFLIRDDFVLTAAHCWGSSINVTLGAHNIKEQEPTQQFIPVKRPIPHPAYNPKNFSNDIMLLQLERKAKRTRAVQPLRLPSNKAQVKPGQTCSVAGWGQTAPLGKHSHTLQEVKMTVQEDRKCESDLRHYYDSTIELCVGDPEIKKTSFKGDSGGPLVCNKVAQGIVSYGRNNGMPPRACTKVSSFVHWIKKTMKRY

Structure (SMILES) | pIC50 [1] | pIC50
O=C(N[C@H](C(=O)N[C@H]1CCc2cccc3c2N(C1=O)[C@H](C(=O)NCc1c[nH]nn1)C3)C1CC1)c1ccccc1 [Compound C082, (2S,5S)-5-((S)-2-Benzoylamino-2-cyclopropyl-acetylamino)-4-oxo-1,2,4,5,6,7-hexahydro-azepino[3,2,1-hi]indole-2-carboxylic acid (1H-[1,2,3]triazol-4-ylmethyl)-amide] | 6.00 to 6.52 | –
CC(=O)N[C@H](C(=O)N[C@H]1CCc2cccc3c2N(C1=O)[C@H](C(=O)NCc1c[nH]nn1)C3)C1CCC1 [Compound C083, (2S,5S)-5-((S)-2-Acetylamino-2-cyclobutyl-acetylamino)-4-oxo-1,2,4,5,6,7-hexahydro-azepino[3,2,1-hi]indole-2-carboxylic acid (1H-[1,2,3]triazol-4-ylmethyl)-amide] | 6.52 to 9.00 | –
O=C(N[C@H](C(=O)N[C@H]1CCc2cccc3c2N(C1=O)[C@H](C(=O)NCc1c[nH]nn1)C3)C1CCC1)c1ccccc1 [Compound C084, (2S,5S)-5-((S)-2-Benzoylamino-2-cyclobutyl-acetylamino)-4-oxo-1,2,4,5,6,7-hexahydro-azepino[3,2,1-hi]indole-2-carboxylic acid (1H-[1,2,3]triazol-4-ylmethyl)-amide] | 6.52 to 9.00 | –
CC(=O)N[C@H](C(=O)N[C@H]1CCc2cccc3c2N(C1=O)[C@H](C(=O)NCC(=O)O)C3)C(C)C [Compound C085, {[(2S,5S)-5-((S)-2-Acetylamino-3-methyl-butyrylamino)-4-oxo-1,2,4,5,6,7-hexahydro-azepino[3,2,1-hi]indole-2-carbonyl]-amino}-acetic acid] | 5.30 to 6.00 | –
COC(=O)CNC(=O)[C@@H]1Cc2cccc3c2N1C(=O)[C@@H](NC(=O)[C@@H](NC(C)=O)C(C)C)CC3 [Compound C086, {[(2S,5S)-5-((S)-2-Acetylamino-3-methyl-butyrylamino)-4-oxo-1,2,4,5,6,7-hexahydro-azepino[3,2,1-hi]indole-2-carbonyl]-amino}-acetic acid methyl ester] | < 5.30 | –
CC(=O)N[C@H](C(=O)N[C@H]1CCc2cccc3c2N(C1=O)[C@H](C(=O)N[C@H](C)C(=O)O)C3)C(C)C [Compound C087, (R)-2-{[(2S,5S)-5-((S)-2-Acetylamino-3-methyl-butyrylamino)-4-oxo-1,2,4,5,6,7-hexahydro-azepino[3,2,1-hi]indole-2-carbonyl]-amino}-propionicacid] | < 5.30 | –
COC(=O)[C@@H](C)NC(=O)[C@@H]1Cc2cccc3c2N1C(=O)[C@@H](NC(=O)[C@@H](NC(C)=O)C(C)C)CC3 [Compound C088, (R)-2-{[(2S,5S)-5-((S)-2-Acetylamino-3-methyl-butyrylamino)-4-oxo-1,2,4,5,6,7-hexahydro-azepino[3,2,1-hi]indole-2-carbonyl]-amino}-propionicacid methyl ester] | < 5.30 | –
CC(=O)N[C@H](C(=O)N[C@H]1CCc2cccc3c2N(C1=O)[C@H](C(=O)N[C@@H](C)C(=O)O)C3)C(C)C [Compound C089, (S)-2-{[(2S,5S)-5-((S)-2-Acetylamino-3-methyl-butyrylamino)-4-oxo-1,2,4,5,6,7-hexahydro-azepino[3,2,1-hi]indole-2-carbonyl]-amino}-propionicacid] | < 5.30 | –
COC(=O)[C@H](C)NC(=O)[C@@H]1Cc2cccc3c2N1C(=O)[C@@H](NC(=O)[C@@H](NC(C)=O)C(C)C)CC3 [Compound C090, (S)-2-{[(2S,5S)-5-((S)-2-Acetylamino-3-methyl-butyrylamino)-4-oxo-1,2,4,5,6,7-hexahydro-azepino[3,2,1-hi]indole-2-carbonyl]-amino}-propionic acid methyl ester] | < 5.30 | –
COC(=O)[C@H](CO)NC(=O)[C@@H]1Cc2cccc3c2N1C(=O)[C@@H](NC(=O)[C@@H](NC(C)=O)C(C)C)CC3 [Compound C091, (S)-2-{[(2S,5S)-5-((S)-2-Acetylamino-3-methyl-butyrylamino)-4-oxo-1,2,4,5,6,7-hexahydro-azepino[3,2,1-hi]indole-2-carbonyl]-amino}-3-hydroxy-propionic acid methyl ester] | < 5.30 | –
CC(=O)N[C@H](C(=O)N[C@H]1CCc2cccc3c2N(C1=O)[C@H](C(=O)N[C@@H](CC(=O)O)C(=O)O)C3)C(C)C [Compound C092, (S)-2-{[(2S,5S)-5-((S)-2-Acetylamino-3-methyl-butyrylamino)-4-oxo-1,2,4,5,6,7-hexahydro-azepino[3,2,1-hi]indole-2-carbonyl]-amino}-succinic acid] | < 5.30 | –
COC(=O)C[C@H](NC(=O)[C@@H]1Cc2cccc3c2N1C(=O)[C@@H](NC(=O)[C@@H](NC(C)=O)C(C)C)CC3)C(=O)OC [Compound C093, (S)-2-{[(2S,5S)-5-((S)-2-Acetylamino-3-methyl-butyrylamino)-4-oxo-1,2,4,5,6,7-hexahydro-azepino[3,2,1-hi]indole-2-carbonyl]-amino}-succinic acid dimethyl ester] | < 5.30 | –
CC(=O)N[C@H](C(=O)N[C@H]1CCc2cccc3c2N(C1=O)[C@H](C(=O)N[C@@H](CCC(=O)O)C(=O)O)C3)C(C)C [Compound C094, (S)-2-{[(2S,5S)-5-((S)-2-Acetylamino-3-methyl-butyrylamino)-4-oxo-1,2,4,5,6,7-hexahydro-azepino[3,2,1-hi]indole-2-carbonyl]-amino}-pentanedioic acid] | < 5.30 | –
COC(=O)CC[C@H](NC(=O)[C@@H]1Cc2cccc3c2N1C(=O)[C@@H](NC(=O)[C@@H](NC(C)=O)C(C)C)CC3)C(=O)OC [Compound C095, (S)-2-{[(2S,5S)-5-((S)-2-Acetylamino-3-methyl-butyrylamino)-4-oxo-1,2,4,5,6,7-hexahydro-azepino[3,2,1-hi]indole-2-carbonyl]-amino}-pentanedioic acid dimethyl ester] | < 5.30 | –
CC(C)[C@H](NC(=O)c1ccccc1)C(=O)N[C@H]1COc2cccc3c2N(C1=O)[C@H](C(=O)NCc1c[nH]nn1)C3 [Compound C100, (1S,8S)-8-((S)-2-Benzoylamino-3-methyl-butyrylamino)-9-oxo-1,2,8,9-tetrahydro-7H-6-oxa-9a-aza-benzo[cd]azulene-1-carboxylic acid (1H-[1,2,3,]triazol-4-ylmethyl)-amide] | 6.52 to 9.00 | –
CC(=O)N[C@H](C(=O)N[C@H]1COc2cccc3c2N(C1=O)[C@H](C(=O)NCc1c[nH]nn1)C3)C(C)C [Compound C101, (1S,8S)-8-((S)-2-Acetylamino-3-methyl-butyrylamino)-9-oxo-1,2,8,9-tetrahydro-7H-6-oxa-9a-aza-benzo[cd]azulene-1-carboxylic acid (1H-[1,2,3]triazol-4-ylmethyl)-amide] | 6.52 to 9.00 | –
CC(C)[C@H](NC(=O)CF)C(=O)N[C@H]1COc2cccc3c2N(C1=O)[C@H](C(=O)NCc1c[nH]nn1)C3 [Compound C102, (1S,8S)-8-[(S)-2-(2-Fluoro-acetylamino)-3-methyl-butyrylamino]-9-oxo-1,2,8,9-tetrahydro-7H-6-oxa-9a-aza-benzo[cd]azulene-1-carboxylic acid (1H-[1,2,3]triazol-4-ylmethyl)-amide] | – | 6.52 to 9.00
CC[C@H](C)[C@H](NC(=O)COCCF)C(=O)N[C@H]1CCc2cccc3c2N(C1=O)[C@H](C(=O)NCc1ccc[nH]1)C3 [Compound C104, (2S,5S)-5-{(2S,3S)-2-[2-(2-Fluoro-ethoxy)-acetylamino]-3-methyl-pentanoylamino}-4-oxo-1,2,4,5,6,7-hexahydro-azepino[3,2,1-hi]indole-2-carboxylic acid (1H-pyrrol-2-ylmethyl)-amide] | < 5.30 | –
CC[C@H](C)[C@H](NC(=O)COCCF)C(=O)N[C@H]1CCc2cccc3c2N(C1=O)[C@H](C(=O)NCc1ccco1)C3 [Compound C105, (2S,5S)-5-{(2S,3S)-2-[2-(2-Fluoro-ethoxy)-acetylamino]-3-methyl-pentanoylamino}-4-oxo-1,2,4,5,6,7-hexahydro-azepino[3,2,1-hi]indole-2-carboxylic acid (furan-2-ylmethyl)-amide] | < 5.30 | –
CC[C@H](C)[C@H](NC(=O)COCCF)C(=O)N[C@H]1CCc2cccc3c2N(C1=O)[C@H](C(=O)NCc1cccs1)C3 [Compound C106, (2S,5S)-5-{(2S,3S)-2-[2-(2-Fluoro-ethoxy)-acetylamino]-3-methyl-pentanoylamino}-4-oxo-1,2,4,5,6,7-hexahydro-azepino[3,2,1-hi]indole-2-carboxylic acid (thiophen-2-ylmethyl)-amide] | < 5.30 | –
CC[C@H](C)[C@H](NC(=O)COCCF)C(=O)N[C@H]1CCc2cccc3c2N(C1=O)[C@H](C(=O)NCc1cc[nH]c1)C3 [Compound C107, (2S,5S)-5-{(2S,3S)-2-[2-(2-Fluoro-ethoxy)-acetylamino]-3-methyl-pentanoylamino}-4-oxo-1,2,4,5,6,7-hexahydro-azepino[3,2,1-hi]indole-2-carboxylic acid (1H-pyrrol-3-ylmethyl)-amide] | < 5.30 | –
CC[C@H](C)[C@H](NC(=O)COCCF)C(=O)N[C@H]1CCc2cccc3c2N(C1=O)[C@H](C(=O)NCc1ccsc1)C3 [Compound C109] | < 5.30 | –
CC[C@H](C)[C@H](NC(=O)COCCF)C(=O)N[C@H]1CCc2cccc3c2N(C1=O)[C@H](C(=O)NCc1cnc[nH]1)C3 [Compound C110, (2S,5S)-5-{(2S,3S)-2-[2-(2-Fluoro-ethoxy)-acetylamino]-3-methyl-pentanoylamino}-4-oxo-1,2,4,5,6,7-hexahydro-azepino[3,2,1-hi]indole-2-carboxylic acid (3H-imidazol-4-ylmethyl)-amide] | < 5.30 | –
CC[C@H](C)[C@H](NC(=O)COCCF)C(=O)N[C@H]1CCc2cccc3c2N(C1=O)[C@H](C(=O)NCc1cnco1)C3 [Compound C111, (2S,5S)-5-{(2S,3S)-2-[2-(2-Fluoro-ethoxy)-acetylamino]-3-methyl-pentanoylamino}-4-oxo-1,2,4,5,6,7-hexahydro-azepino[3,2,1-hi]indole-2-carboxylic acid (oxazol-5-ylmethyl)-amide] | < 5.30 | –
